Legend:
[1] = molar heat capacity at constant pressure; conditions: 83 kPa, Liquid, DSC
[2] = 83 kPa, Liquid; for speed of sound: Frequency=3 MHz, Single path-length method; for mass density: Vibrating tube method

CCCCC(=O)OCC(COC(=O)CCCC)(COC(=O)CCCC)COC(=O)CCCC [pentaerythritol tetrapentanoate]
Conditions	mass density [kg/m3]	molar heat capacity at constant pressure [J/K/mol]	speed of sound [m/s]
[1], 263.14 K	–	805.33	–
[1], 264.15 K	–	806.28	–
[1], 265.15 K	–	807.22	–
[1], 266.14 K	–	808.17	–
[1], 267.14 K	–	809.11	–
[1], 268.15 K	–	809.58	–
[1], 269.14 K	–	810.53	–
[1], 270.14 K	–	811.47	–
[1], 271.15 K	–	812.42	–
[1], 272.14 K	–	813.37	–
[1], 273.14 K	–	814.78	–
[1], 274.14 K	–	815.73	–
[1], 275.15 K	–	816.67	–
[1], 276.14 K	–	817.62	–
[1], 277.14 K	–	819.04	–
[1], 278.15 K	–	819.98	–
[1], 279.15 K	–	820.93	–
[1], 280.15 K	–	821.87	–
[1], 281.14 K	–	822.82	–
[1], 282.15 K	–	823.76	–
[1], 283.15 K	–	824.71	–
[1], 284.15 K	–	825.65	–
[1], 285.15 K	–	827.07	–
[1], 286.14 K	–	828.02	–
[1], 287.14 K	–	828.96	–
[1], 288.15 K	–	829.91	–
[1], 289.15 K	–	831.32	–
[1], 290.14 K	–	832.27	–
[1], 291.14 K	–	833.69	–
[1], 292.14 K	–	835.11	–
[1], 293.14 K	–	836.05	–
[1], 294.15 K	–	837.47	–
[1], 295.14 K	–	838.89	–
[1], 296.15 K	–	839.83	–
[1], 297.14 K	–	841.25	–
[1], 298.14 K	–	842.67	–
[1], 299.15 K	–	843.61	–
[1], 300.14 K	–	845.03	–
[1], 301.15 K	–	846.45	–
[1], 302.14 K	–	847.39	–
[1], 303.15 K	–	848.81	–
[1], 304.15 K	–	850.23	–
[1], 305.14 K	–	851.17	–
[1], 306.15 K	–	852.12	–
[1], 307.15 K	–	853.54	–
[1], 308.14 K	–	854.48	–
[1], 309.14 K	–	855.9	–
[1], 310.15 K	–	857.32	–
[1], 311.15 K	–	858.26	–
[1], 312.14 K	–	859.68	–
[1], 313.15 K	–	860.63	–
[1], 314.14 K	–	862.04	–
[1], 315.15 K	–	863.46	–
[1], 316.14 K	–	864.41	–
[1], 317.15 K	–	865.83	–
[1], 318.15 K	–	866.77	–
[1], 319.14 K	–	868.19	–
[1], 320.15 K	–	869.61	–
[1], 321.15 K	–	870.55	–
[1], 322.14 K	–	871.97	–
[1], 323.14 K	–	873.39	–
[1], 324.15 K	–	874.33	–
[1], 325.14 K	–	875.75	–
[1], 326.15 K	–	876.7	–
[1], 327.15 K	–	878.11	–
[1], 328.15 K	–	879.53	–
[1], 329.14 K	–	880.48	–
[1], 330.15 K	–	881.89	–
[1], 331.15 K	–	883.31	–
[1], 332.14 K	–	884.26	–
[1], 333.14 K	–	885.68	–
[1], 334.15 K	–	887.09	–
[1], 335.14 K	–	888.51	–
[1], 336.14 K	–	889.93	–
[1], 337.14 K	–	891.35	–
[1], 338.14 K	–	892.29	–
[1], 339.15 K	–	893.71	–
[1], 340.14 K	–	895.13	–
[1], 341.14 K	–	896.07	–
[1], 342.15 K	–	897.02	–
[1], 343.14 K	–	898.44	–
[1], 344.15 K	–	899.38	–
[1], 345.15 K	–	900.8	–
[1], 346.15 K	–	902.22	–
[1], 347.14 K	–	903.16	–
[1], 348.14 K	–	904.58	–
[1], 349.15 K	–	906	–
[1], 350.14 K	–	907.42	–
[1], 351.14 K	–	908.36	–
[1], 352.14 K	–	909.78	–
[1], 353.14 K	–	911.2	–
[1], 354.15 K	–	912.61	–
[1], 355.14 K	–	913.56	–
[1], 356.15 K	–	914.98	–
[1], 357.15 K	–	916.39	–
[1], 358.14 K	–	917.81	–
[1], 359.15 K	–	918.76	–
[1], 360.15 K	–	920.18	–
[1], 361.14 K	–	921.59	–
[1], 362.15 K	–	922.54	–
[1], 363.15 K	–	923.96	–
[1], 364.14 K	–	925.37	–
[1], 365.14 K	–	926.79	–
[1], 366.15 K	–	927.74	–
[1], 367.14 K	–	929.16	–
[1], 368.14 K	–	930.57	–
[1], 369.14 K	–	931.99	–
[1], 370.14 K	–	933.41	–
[1], 371.15 K	–	934.35	–
[1], 372.14 K	–	935.77	–
[1], 373.14 K	–	937.19	–
[1], 374.15 K	–	938.61	–
[1], 375.14 K	–	939.55	–
[1], 376.14 K	–	940.97	–
[1], 377.14 K	–	942.39	–
[1], 378.15 K	–	943.81	–
[1], 379.15 K	–	944.75	–
[1], 380.14 K	–	946.17	–
[1], 381.15 K	–	947.59	–
[1], 382.14 K	–	949.01	–
[1], 383.14 K	–	950.42	–
[1], 384.14 K	–	951.84	–
[1], 385.15 K	–	952.79	–
[1], 386.14 K	–	954.2	–
[1], 387.14 K	–	955.62	–
[1], 388.15 K	–	957.04	–
[1], 389.15 K	–	957.98	–
[1], 390.14 K	–	959.4	–
[1], 391.15 K	–	960.82	–
[1], 392.15 K	–	961.77	–
[1], 393.15 K	–	963.18	–
[1], 394.15 K	–	964.13	–
[1], 395.15 K	–	965.55	–
[1], 396.14 K	–	966.96	–
[1], 397.14 K	–	968.38	–
[1], 398.14 K	–	969.8	–
[1], 399.14 K	–	971.22	–
[1], 400.15 K	–	972.16	–
[1], 401.14 K	–	973.58	–
[1], 402.14 K	–	975	–
[1], 403.15 K	–	975.94	–
[1], 404.15 K	–	977.36	–
[1], 405.14 K	–	978.78	–
[1], 406.15 K	–	979.72	–
[1], 407.14 K	–	981.14	–
[1], 408.14 K	–	982.56	–
[1], 409.14 K	–	983.51	–
[1], 410.15 K	–	984.92	–
[1], 411.15 K	–	986.34	–
[1], 412.14 K	–	987.76	–
[1], 413.15 K	–	988.7	–
[1], 414.15 K	–	990.12	–
[1], 415.15 K	–	991.54	–
[1], 416.14 K	–	992.96	–
[1], 417.15 K	–	993.9	–
[1], 418.15 K	–	995.32	–
[1], 419.15 K	–	996.27	–
[1], 420.14 K	–	997.68	–
[1], 421.15 K	–	999.1	–
[1], 422.15 K	–	1000	–
[1], 423.15 K	–	1001.5	–
[1], 424.14 K	–	1002.9	–
[1], 425.15 K	–	1004.3	–
[1], 426.15 K	–	1005.2	–
[1], 427.14 K	–	1006.7	–
[1], 428.15 K	–	1008.1	–
[1], 429.15 K	–	1009	–
[1], 430.14 K	–	1010.4	–
[1], 431.15 K	–	1011.4	–
[1], 432.15 K	–	1012.8	–
[2], 278.15 K	1030.29	–	1417.7
[2], 283.15 K	1026.21	–	1400.3
[2], 288.15 K	1022.14	–	1383.2
[2], 293.15 K	1018.08	–	1366.2
[2], 298.15 K	1014.04	–	1349.3
[2], 303.15 K	1010	–	1332.7
[2], 308.15 K	1005.97	–	1316.2
[2], 313.15 K	1001.94	–	1299.8
[2], 318.15 K	997.92	–	1283.6
[2], 323.15 K	993.9	–	1267.6
[2], 328.15 K	989.89	–	1251.8
[2], 333.15 K	985.88	–	1236.1
[2], 338.15 K	981.88	–	1220.5
[2], 343.15 K	977.88	–	1205.2

— the NIST ThermoML archive (doi:10.1021/acs.jced.8b00358)
